The test system of assay [1] is COX-2. As to the kind of experiment: Western blotting of COX-2 expression in LPS-treated RAW 264.7. The following applies: LPS treatment = 100%, upon apigenin treatment. It counts as cell-based, mice. The method, then: (§1) A macrophage cell line derived from mice, RAW 264.7 (KCLB 40071), was purchased from the Korean Cell Line Bank. RAW 264.7 cells were seeded in a density of 3×10^6 cells onto 60-mm culture dishes containing DMEM (Dulbecco's Modified Eagle Medium, 12800-017, Gibco) supplemented with 10% FBS (fetal bovine serum, 26140-079, Gibco), 100 U/ml of penicillin and 100 μg/ml streptomycin (15140-122, Gibco), and cultured at 37° C. under 5% CO2 and humidity for 24 hrs. To induce NO production, RAW 264.7 cells were treated with 500 ng/ml of an E. coli cell wall component, lipopolysaccharide (LPS, L2654, Sigma). […] Herein, LPS was dissolved in distilled water, and apigenin was dissolved in DMSO. Then, the culture medium and a Griess reagent were mixed at a ratio of 1:1 (100 μl: 100 μl) and allowed to stand at room temperature for 10 min. Thereafter, absorbance was measured at 540 nm using a spectrophotometer (Power Wave X340, Bio-Tek).
RAW 264.7 cells were treated under the same conditions as in Example 12. […] Herein, for IκBα expression, the cells were treated with LSP for only two hours. […] After protein concentrations in cell lysates were measured, […] protein samples were separated on an 8-16% SDS (sodium dodecyl sulfate) polyacrylamide gel (EC60452, NOVEX). […]

Assay [2] has as its system RAW 264.7 cells. The assay can be described thus: LPS-induced prostaglandin E2 production of macrophages (immunoassay). The following applies: LPS alone 4156, non-treated 71. It counts as cell-based, mice. The method, then: as §1, with “[…],” for “L2654,”, “Bio-Tek). RAW 264.7 cells were treated under the same conditions as in Example 12. PGE2 levels were measured using a PGE2 immunoassay kit (DE0100, R&D Systems). 100 μl of a culture medium was allowed to react with 50 μl of a conjugate and 50 μl of an antibody in the kit for two hours, and was then allowed to react with 200 μl of a developing reagent, pNPP, for one hour. Thereafter, absorbance was measured at 405 nm using a spectrophotometer (Power Wave X340, Bio-Tek).” for “Bio-Tek).”

For assay [3], the system named is osteoarthritis-induced New Zealand white rabbits. The assay can be described thus: Prostaglandin E2 levels in joint synovial fluids (EIA). It counts as in vivo. The source says: (§2) To prepare an osteoarthritis animal model, New Zealand white rabbits underwent anterior cruciate ligament transection (ACLT) in joints of their two hind legs. After three days, the rabbits were forced to sustain movement for four weeks in a space of 5×5 m^3 to induce substantial osteoarthritis. […] The following Examples 3 to 10 were all performed using joints of the osteoarthritis-induced New Zealand white rabbits prepared as in this Example 2.
Using the joint synovial fluids prepared in Example 3, prostaglandin E2 (PGE2) levels in synovial fluids were measured using an enzyme immunoassay (EIA) kit (DE0100, R&D Systems). 100 μl of a 1:10 dilution of a synovial fluid sample was mixed with 50 μl of a conjugate and 50 μl of an antibody in a plate provided in the kit, and was incubated with agitation at room temperature for two hours. Then, the plate was washed with a washing buffer, and 200 μl of a pNPP solution was added thereto, followed by incubation at room temperature for one hour. Thereafter, absorbance was measured at 405 nm.

Assay [4] shares this test system. As to the kind of experiment: Nitric oxide levels in synovial fluids (Griess reaction). It counts as in vivo.
From the text: as §2
A synovial fluid and a Griess reagent were mixed at a ratio of 1:1 (100 μl: 100 μl) and allowed to stand at room temperature for 10 min, and absorbance was measured at 540 nm using a spectrophotometer (Power Wave X340, Bio-Tek). The Griess reagent was prepared in a final volume of 10 ml using 0.1 g of sulfanilamide (S9251, Sigma), 0.5 ml of phosphoric acid (P6560, Sigma) and 0.01 g of N-naphthyl-diamine-H-chloride (102397, ICN). A quantitative curve for nitrite was obtained using sodium nitrite (S2252, Sigma).
(In general: Griess reagent forms a coloured azo dye with nitrite.)

Setting [5] is: apigenin-treated right leg (+), four weeks after drug injection.
[6] abbreviates: apigenin-treated right leg (+), four weeks after drug injection, listed as Apigenin.
[7] abbreviates: apigenin-treated right leg (+), two weeks after drug injection.
[8] abbreviates: non-treated left leg (−) of apigenin treatment group, four weeks after drug injection.
Where [9] appears, read: non-treated left leg (−) of apigenin treatment group, two weeks after drug injection.

Here are results for one compound from patent US20070154540A1 (KMSI CO., LTD., priority 2003, published 2007).

`O=c1cc(-c2ccc(O)cc2)oc2cc(O)cc(O)c12` [apigenin, 4′,5,7-trihydroxyflavone] showed a COX-2 expression level in assay [1] of 0%. Besides, the PGE2 stood at 3935 pg/mL in assay [2] (LPS 500 ng/ml + apigenin 10 μM), 3918 pg/mL in assay [2] (LPS 500 ng/ml + apigenin 20 μM), 1057 pg/mL in assay [2] (LPS 500 ng/ml + apigenin 40 μM) and 300 pg/mL in assay [2] (LPS 500 ng/ml + apigenin 80 μM). In addition, the “PGE2 levels in joint synovial fluids” value in assay [3] (setting [5]) is “about 196.71 pg/ml”; in assay [3] (setting [6]), 196.71 ± 0.52 pg/mL; in assay [3] (setting [7]) it was 183.26 ± 0.2 pg/mL; in assay [3] (setting [8]) it was “about 753.2 pg/ml”; in assay [3] (non-treated left leg (−) of apigenin treatment group, four weeks after drug injection, listed as Apigenin), 509.2 ± 9.2 pg/mL; in assay [3] (setting [9]) it was 543.3 ± 1.13 pg/mL. For the same compound, the “NO levels in synovial fluids” value in assay [4] (setting [5]) was “about 6.01 μM”; in assay [4] (setting [6]), 6.01 ± 0.88 µM; in assay [4] (setting [7]), 7.53 ± 4.66 µM; in assay [4] (setting [8]), 5.5 ± 4.59 µM; in assay [4] (setting [9]), 0.65 ± 0.06 µM.
